Results from ChEMBL document CHEMBL1201862, “PubChem BioAssay data set” (2004).
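Dose response: 5 concentrations. Exposure: 48 h. Format: 96-well plates. Endpoint: linear interpolation; highest concentration if not reached. Abbreviation: GI50, concentration required for 50% inhibition of growth.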 The source made the active and inactive calls. Cut-off read from the data, not from the text of the source: active = GI50 up to about 1.1 µM and inactive = higher.

Experiments:
Assay in all cases: inhibition of tumour cell growth, NCI panel, 48 h
ACHN = system: ACHN
NCI-H226 = system: NCI-H226
IGROV-1 = system: IGROV-1
SN12C = system: SN12C
OVCAR-8 = system: OVCAR-8
COLO 205 = system: COLO 205
CAKI-1 = system: CAKI-1
K562 = system: K562
SNB-19 = system: SNB-19
HOP-18 = system: HOP-18
M14 = system: M14
OVCAR-5 = system: OVCAR-5
SF-539 = system: SF-539
HCC 2998 = system: HCC 2998
UACC-62 = system: UACC-62
Hs-578T = system: Hs-578T
T47D = system: T47D
MDA-N = system: MDA-N
MDA-MB-435 = system: MDA-MB-435
MDA-MB-231 = system: MDA-MB-231

SMILES	GI50 (ACHN)	GI50 (NCI-H226)	GI50 (IGROV-1)	GI50 (SN12C)	GI50 (OVCAR-8)	GI50 (COLO 205)	GI50 (CAKI-1)	GI50 (K562)	GI50 (SNB-19)	GI50 (HOP-18)	GI50 (M14)	GI50 (OVCAR-5)	GI50 (SF-539)	GI50 (HCC 2998)	GI50 (UACC-62)	GI50 (Hs-578T)	GI50 (T47D)	GI50 (MDA-N)	GI50 (MDA-MB-435)	GI50 (MDA-MB-231)
COc1ccc2c(c1)[n+]([O-])c(C(N)=O)c(N)[n+]2[O-]	> 100 µM (inactive)	> 100 µM (inactive)	75.7 µM (inactive)	> 100 µM (inactive)	95.3 µM (inactive)	24.4 µM (inactive)	> 100 µM (inactive)	> 100 µM (inactive)	> 100 µM (inactive)	> 100 µM (inactive)	75.5 µM (inactive)	> 100 µM (inactive)	> 100 µM (inactive)	–	–	–	–	–	–	–
COC1/C(=C\C(C)=O)c2ccccc2N1C(C)=O (stereo not given)	> 100 µM (inactive)	–	> 100 µM (inactive)	> 100 µM (inactive)	> 100 µM (inactive)	> 100 µM (inactive)	> 100 µM (inactive)	> 100 µM (inactive)	> 100 µM (inactive)	> 100 µM (inactive)	> 100 µM (inactive)	–	> 100 µM (inactive)	> 100 µM (inactive)	> 100 µM (inactive)	–	–	–	–	–
COc1ccc2c(C(=O)O)cc3cc(OC)c(OC)cc3c2c1	> 100 µM (inactive)	> 100 µM (inactive)	> 100 µM (inactive)	> 100 µM (inactive)	> 100 µM (inactive)	> 100 µM (inactive)	–	> 100 µM (inactive)	> 100 µM (inactive)	> 100 µM (inactive)	> 100 µM (inactive)	> 100 µM (inactive)	> 100 µM (inactive)	> 100 µM (inactive)	> 100 µM (inactive)	–	–	–	–	–
Nc1nc(SCc2ccccc2Cl)c2ncn(C3OC(CO)C(O)C3O)c2n1 (stereo not given)	> 100 µM (inactive)	–	> 100 µM (inactive)	> 100 µM (inactive)	89.9 µM (inactive)	> 100 µM (inactive)	> 100 µM (inactive)	57 µM (inactive)	38.8 µM (inactive)	> 100 µM (inactive)	> 100 µM (inactive)	> 100 µM (inactive)	89.1 µM (inactive)	> 100 µM (inactive)	72.3 µM (inactive)	–	–	–	–	–
CSc1cnc2ccccc2c1Sc1c[nH]c2ccccc2c1=O	15.1 µM (inactive)	7.31 µM (inactive)	14.4 µM (inactive)	11.8 µM (inactive)	14 µM (inactive)	6.24 µM (inactive)	–	3.46 µM (inactive)	20 µM (inactive)	14.9 µM (inactive)	6.76 µM (inactive)	24.4 µM (inactive)	11.5 µM (inactive)	12.9 µM (inactive)	4.03 µM (inactive)	–	–	–	–	–
N#Cc1c(NN)nc(NN)c(C#N)c1-c1ccccc1	> 100 µM (inactive)	52.8 µM (inactive)	> 100 µM (inactive)	> 100 µM (inactive)	> 100 µM (inactive)	> 100 µM (inactive)	> 100 µM (inactive)	> 100 µM (inactive)	> 100 µM (inactive)	> 100 µM (inactive)	> 100 µM (inactive)	> 100 µM (inactive)	> 100 µM (inactive)	> 100 µM (inactive)	> 100 µM (inactive)	–	–	–	–	–
C1CN(c2nnc(N3CCC3)nn2)C1	> 69.8 µM (inactive)	> 96.6 µM (inactive)	> 100 µM (inactive)	29 µM (inactive)	> 100 µM (inactive)	60.7 µM (inactive)	> 94.4 µM (inactive)	23.6 µM (inactive)	> 67.9 µM (inactive)	> 100 µM (inactive)	36.1 µM (inactive)	41.2 µM (inactive)	44.8 µM (inactive)	> 100 µM (inactive)	19.3 µM (inactive)	39 µM (inactive)	> 100 µM (inactive)	17.3 µM (inactive)	18.4 µM (inactive)	> 42.6 µM (inactive)
COc1ccc(Br)c(CCCCC(=O)O)c1	> 100 µM (inactive)	–	> 100 µM (inactive)	> 100 µM (inactive)	> 100 µM (inactive)	> 100 µM (inactive)	> 100 µM (inactive)	> 100 µM (inactive)	> 100 µM (inactive)	> 100 µM (inactive)	> 100 µM (inactive)	–	> 100 µM (inactive)	> 100 µM (inactive)	> 100 µM (inactive)	–	–	–	–	–
COC(=O)Cc1cc(=O)[nH]c2c1C(=O)CCC2	> 100 µM (inactive)	> 100 µM (inactive)	> 100 µM (inactive)	> 100 µM (inactive)	> 100 µM (inactive)	–	–	> 100 µM (inactive)	> 100 µM (inactive)	> 100 µM (inactive)	> 100 µM (inactive)	> 100 µM (inactive)	> 100 µM (inactive)	> 100 µM (inactive)	–	–	–	–	–	–
COc1ccc(/C(Cl)=C/c2ccc(Cl)c(Cl)c2)cc1	24.8 µM (inactive)	14.9 µM (inactive)	38.1 µM (inactive)	29.4 µM (inactive)	29.1 µM (inactive)	22.1 µM (inactive)	–	35.1 µM (inactive)	63.4 µM (inactive)	16.5 µM (inactive)	33.2 µM (inactive)	–	43.7 µM (inactive)	19.8 µM (inactive)	24.3 µM (inactive)	–	–	–	–	–
NC1=NC(=O)C(CC(=O)Nc2ccc([N+](=O)[O-])cc2[N+](=O)[O-])S1 (stereo not given)	> 100 µM (inactive)	> 100 µM (inactive)	> 100 µM (inactive)	> 100 µM (inactive)	> 100 µM (inactive)	> 100 µM (inactive)	–	–	> 100 µM (inactive)	52 µM (inactive)	> 100 µM (inactive)	> 100 µM (inactive)	–	> 100 µM (inactive)	> 100 µM (inactive)	–	–	–	–	–
c1ccc2cc(-c3cc4ccccc4s3)ccc2c1	> 100 µM (inactive)	> 100 µM (inactive)	> 100 µM (inactive)	> 100 µM (inactive)	> 100 µM (inactive)	> 100 µM (inactive)	> 100 µM (inactive)	> 100 µM (inactive)	> 100 µM (inactive)	> 100 µM (inactive)	> 100 µM (inactive)	> 100 µM (inactive)	> 100 µM (inactive)	> 100 µM (inactive)	> 100 µM (inactive)	–	–	–	–	–
CC(=O)CC(=O)CCCC(=O)Nc1ccc(Cl)cc1C	> 100 µM (inactive)	> 100 µM (inactive)	> 100 µM (inactive)	> 100 µM (inactive)	> 100 µM (inactive)	> 100 µM (inactive)	> 100 µM (inactive)	> 100 µM (inactive)	> 100 µM (inactive)	> 100 µM (inactive)	> 100 µM (inactive)	> 100 µM (inactive)	> 100 µM (inactive)	> 100 µM (inactive)	> 100 µM (inactive)	–	–	–	–	–
O=[N+]([O-])c1cc2c(cc1O)[nH]c1cccc([N+](=O)[O-])c12	> 100 µM (inactive)	> 100 µM (inactive)	–	> 100 µM (inactive)	> 100 µM (inactive)	> 100 µM (inactive)	> 100 µM (inactive)	> 100 µM (inactive)	> 100 µM (inactive)	33.9 µM (inactive)	> 100 µM (inactive)	> 100 µM (inactive)	> 100 µM (inactive)	> 100 µM (inactive)	–	–	–	–	–	–
O=S(=O)(O)CS(=O)(=O)OCCCl	> 100 µM (inactive)	> 100 µM (inactive)	> 100 µM (inactive)	> 100 µM (inactive)	> 100 µM (inactive)	> 100 µM (inactive)	> 100 µM (inactive)	> 100 µM (inactive)	> 100 µM (inactive)	81.8 µM (inactive)	> 100 µM (inactive)	> 100 µM (inactive)	> 100 µM (inactive)	> 100 µM (inactive)	> 100 µM (inactive)	–	–	–	–	–
S=c1sc2c(n1-c1ccccc1)N=CNC2S (stereo not given)	60.5 µM (inactive)	44.6 µM (inactive)	> 100 µM (inactive)	69.3 µM (inactive)	> 100 µM (inactive)	> 100 µM (inactive)	> 100 µM (inactive)	63.2 µM (inactive)	73.1 µM (inactive)	28.8 µM (inactive)	> 100 µM (inactive)	> 100 µM (inactive)	65.3 µM (inactive)	33.1 µM (inactive)	43.7 µM (inactive)	–	–	–	–	–
CC(=O)NC1C(OCc2ccccc2)OC(CO)C(O)C1OCC(=O)N1CCCC1C(=O)NC(CCC(=O)NCCCCCNc1c2ccccc2nc2cccc([N+](=O)[O-])c12)C(N)=O (stereo not given)	0.00865 µM (active)	0.114 µM (active)	0.232 µM (active)	0.011 µM (active)	0.00497 µM (active)	0.0144 µM (active)	0.0262 µM (active)	0.00366 µM (active)	0.028 µM (active)	–	0.0228 µM (active)	0.0231 µM (active)	0.0456 µM (active)	0.00706 µM (active)	0.0225 µM (active)	0.0345 µM (active)	0.578 µM (active)	0.019 µM (active)	0.0154 µM (active)	0.0175 µM (active)
